Assay results: publication PMC11050087, “Polyphenols from Maackia amurensis Heartwood Protect Neuronal Cells from Oxidative Stress and Prevent Herpetic Infection” (International Journal of Molecular Sciences, 2024)
Several values for one entry are separate records, joined by “and”; a condition that tells them apart may be missing. Equal entries are not always repeated.

Legend:
[1] = tested on: 6-OHDA-treated Neuro-2a cells; experiment: ROS analysis in 6-OHDA-treated cells (H2DCF-DA); type: cell-based, murine; conditions: 6-OHDA 120 µM; for reduction of ROS levels in 6-OHDA-treated Neuro-2a cells: compound 1 µM
Method: We studied the effect of polyphenolic compounds set on ROS levels in 6-OHDA-treated Neuro-2a cells (Figure 5a–d).
(§1) Figure 5 The effect of polyphenolic compounds isolated from M. amurensis heartwood on ROS levels in Neuro-2a cells treated with 6-OHDA (120 μM) (a–d). Polyphenolic compounds isolated from M. amurensis heartwood were used at concentrations 10, 1, 0.1 μM. The data are presented as means ± SEM of three independent replicates.
After 24 h of adhesion, Neuro-2a cells (5 × 10^4 cells/mL) were incubated with polyphenolic compounds at concentrations of 0.1, 1, and 10 µM for 1 h. Then, 120 µM of 6-OHDA or 1 mM of PQ were added to each well, and cells were incubated for 1 h. To study the ROS formation, 20 µL of 2,7-dichlorodihydrofluorescein diacetate solution (H2DCF-DA, Sigma-Aldrich, St. Louis, MO, USA) were added to each well, so that the final concentration was 10 µM. Then, the microplate was incubated for 30 min at 37 °C.

[2] = tested on: 6-OHDA-treated Neuro-2a cells; experiment: Mitochondrial membrane potential detection (TMRM) in 6-OHDA-treated cells; type: cell-based, murine; conditions: compound 10 µM; 6-OHDA 120 µM; TMRM
Method: We determined the effect of polyphenolic compounds from M. amurensis on 6-OHDA-induced mitochondrial dysfunction in Neuro-2a cells (Figure 6a,b).
as §1, with “6” for “5”, “mitochondrial membrane potential” for “ROS levels”, “(a,b).” for “(a–d).”, “replicates. (*) and (***) indicate, respectively, p < 0.05 and p < 0.001 versus 6-OHDA-treated cells.” for “replicates.”
The cells were incubated for 1 h in a 96-well plate (1 × 10^4 cells/well) with polyphenolic compounds (0.1, 1 and 10 µM). Then, 6-OHDA (120 µM) was added, and cell suspension was incubated for 1 h. Cells incubated without 6-OHDA and compounds and with 6-OHDA alone were used as positive and negative control, respectively. The tetramethylrhodamine methyl (TMRM) (Sigma-Aldrich, St. Louis, MO, USA) solution (500 nM) was added to each well and cells were incubated for 30 min at 37 °C. The intensity of fluorescence was measured using a PHERAstar FSplate reader (BMG Labtech, Ortenberg, Germany) at λex = 540 nm and λem = 590 nm. The data were processed by MARS Data Analysis v. 3.01R2 (BMG Labtech, Ortenberg, Germany).

[3] = tested on: HSV-1; experiment: Virucidal activity, CPE inhibition assay (HSV-1 pretreated with compounds); type: cell-based, HSV-1 strain L2; conditions: for IC50: Human alphaherpesvirus 1, virus pretreated with compound (virucidal), Vero cells, 100 TCID50/mL; for SI: ratio of CC50 to IC50, virucidal scheme

Row | Structure (SMILES) | reduction of ROS levels in 6-OHDA-treated Neuro-2a cells [1] | increase of mitochondrial membrane potential [2] | IC50 ([3]; CPE assay) | SI [3] | effect on ROS levels in 6-OHDA-treated Neuro-2a cells (in words) ([1]; compounds at 10, 1, 0.1 µM) | virucidal activity against HSV-1 (in words) ([3]; CPE assay, virus pretreated with compound)
1 | Oc1ccc(/C=C/c2cc(O)cc(O)c2)cc1 [Compound 1, resveratrol] | approximately 15% | 8–12% | 9.6 µg/mL and 42.1 µM | 12.8 ± 1.9 |  | 
2 | O=C1C[C@@H](c2ccc(O)cc2)Oc2cc(O)ccc21 [Compound 6, liquiritigenin] | 15% | 8–12% |  |  | dose-dependent effect | did not show virucidal activity
3 | Oc1cc(O)cc(/C=C/c2ccc3c(c2)O[C@H](c2cc(O)cc(O)c2)[C@@H](c2ccc(O)c(O)c2)O3)c1 [Compound 9, maackin] |  | 8–12% | 2.4 µg/mL and 4.9 µM | 112.3 and 112.3 ± 13.5 |  | 
4 | Oc1ccc(/C=C/c2cc(O)cc3c2[C@H](c2cc(O)cc(O)c2)[C@@H](c2ccc(O)c(O)c2)O3)cc1 [Compound 13, scirpusin A] | 43% |  | 2.6 µg/mL and 5.5 µM |  |  | 
